# Like-named read-outs stand apart in the source and are kept apart here.
# System: MAO-B
# Assay type: in vivo, Macaca fascicularis
# Conditions: for 2-TC parameter estimate k2 / 2-TC parameter estimate k3 / 2-TC parameter estimate k4 / 2-TC parameter estimate K1 / 2-TC parameter estimate VT / VT, 2-TC mean / VT, Logan mean: baseline
# Protocol: At start of PET data acquisition, a sterile physiological phosphate buffer solution (pH = 7.4) of [^18F]GEH200449 (injected radioactivity, 107–167 MBq) was injected as a bolus into a sural vein. Emission data were acquired in list mode for 123 min. Arterial blood was sampled as previously described[28] using an automated blood sampling system (ABSS) during the first 3 min of each PET measurement. Subsequently, arterial blood samples (0.7–2.5 mL) were manually drawn at 7, 15, 30, 60, 90, and 120 min after injection of [^18F]GEH200449. After centrifugation, 0.15–1.0 mL of plasma was pipetted and plasma radioactivity was measured in a well counter. In addition, samples were taken directly from the ABSS at 0.5, 1, 1.5, 2, 2.5, and 3 min for cross-calibration with the well counter and for the determination of the plasma-to-blood ratio.
# Dynamic images were reconstructed as previously described.[30],[31] Regions of interest (ROIs) for the whole brain and selected regions (caudate nucleus, putamen, thalamus, occipital cortex, prefrontal cortex, and cerebellum) were manually delineated on T1-weighted magnetic resonance images (MRIs) acquired as previously described.[21],[27] PET images were coregistered to the MRIs, and time-activity curves were generated by pooling ROIs for each paired anatomical region and applying the pooled ROIs to the coregistered PET images. Delineation of ROIs and image coregistrations were performed using the software PMOD v. 3.6 (PMOD Technologies, Zurich, Switzerland).
# Time curves for regional [^18F]GEH200449 binding at baseline were analyzed by kinetic modeling using 1-TC and 2-TC models,[32] and VT as outcome measures. Akaike information criterion[33] and F statistics were applied to select the preferred model. Regional estimates of VT for [^18F]GEH200449 were also obtained using the Logan linear graphical method[34] with t* fixed at 40 min. The analyses were performed using the kinetic modeling tool in PMOD v. 4.3. Occupancy at [^18F]GEH200449 binding sites was estimated based on regional VT values obtained by the Logan method at baseline and after drug administration according to a graphical procedure described in the literature.[22]
compound,measurement,setting,value
O=c1ccoc2ccc(OCc3ccc([18F])nc3)cc12 [[^18F]GEH200449],2-TC parameter estimate k2,"NHP #4, CER",0.03 min⁻¹
same,2-TC parameter estimate k3,"NHP #4, CER",0.001 min⁻¹
same,2-TC parameter estimate k4,"NHP #4, CER",0.000 min⁻¹
same,2-TC parameter estimate K1,"NHP #4, OC",0.31 mL min-1 cm-3
same,2-TC parameter estimate k2,"NHP #4, OC",0.03 min⁻¹
same,2-TC parameter estimate k3,"NHP #4, OC",0.001 min⁻¹
same,2-TC parameter estimate k4,"NHP #4, OC",0.000 min⁻¹
same,2-TC parameter estimate K1,"NHP #4, PFC",0.37 mL min-1 cm-3
same,2-TC parameter estimate VT,"NHP #4, PFC",13.9 mL cm-3
same,2-TC parameter estimate k2,"NHP #4, PFC",0.03 min⁻¹
same,2-TC parameter estimate k3,"NHP #4, PFC",0.002 min⁻¹
same,2-TC parameter estimate k4,"NHP #4, PFC",0.013 min⁻¹
same,2-TC parameter estimate K1,"NHP #4, PUT",0.57 mL min-1 cm-3
same,2-TC parameter estimate VT,"NHP #4, PUT",17.2 mL cm-3
same,2-TC parameter estimate k2,"NHP #4, PUT",0.04 min⁻¹
same,2-TC parameter estimate k3,"NHP #4, PUT",0.006 min⁻¹
same,2-TC parameter estimate k4,"NHP #4, PUT",0.034 min⁻¹
same,2-TC parameter estimate K1,"NHP #4, THA",0.53 mL min-1 cm-3
same,2-TC parameter estimate VT,"NHP #4, THA",18.1 mL cm-3
same,2-TC parameter estimate k2,"NHP #4, THA",1.24 min⁻¹
same,2-TC parameter estimate k3,"NHP #4, THA",4.043 min⁻¹
same,2-TC parameter estimate k4,"NHP #4, THA",0.098 min⁻¹
same,2-TC parameter estimate K1,"NHP #4, WB",0.34 mL min-1 cm-3
same,2-TC parameter estimate VT,"NHP #4, WB",13.1 mL cm-3
same,2-TC parameter estimate k2,"NHP #4, WB",0.03 min⁻¹
same,2-TC parameter estimate k3,"NHP #4, WB",0.003 min⁻¹
same,2-TC parameter estimate k4,"NHP #4, WB",0.016 min⁻¹
same,2-TC parameter estimate K1,"NHP #5, CAU",0.93 mL min-1 cm-3
same,2-TC parameter estimate VT,"NHP #5, CAU",34.1 mL cm-3
same,2-TC parameter estimate k2,"NHP #5, CAU",0.05 min⁻¹
same,2-TC parameter estimate k3,"NHP #5, CAU",0.004 min⁻¹
same,2-TC parameter estimate k4,"NHP #5, CAU",0.004 min⁻¹
same,2-TC parameter estimate K1,"NHP #5, CER",0.51 mL min-1 cm-3
same,2-TC parameter estimate VT,"NHP #5, CER",16.0 mL cm-3
same,2-TC parameter estimate k2,"NHP #5, CER",0.05 min⁻¹
same,2-TC parameter estimate k3,"NHP #5, CER",0.006 min⁻¹
same,2-TC parameter estimate k4,"NHP #5, CER",0.011 min⁻¹
same,2-TC parameter estimate K1,"NHP #5, OC",0.37 mL min-1 cm-3
same,2-TC parameter estimate k2,"NHP #5, OC",0.04 min⁻¹
same,2-TC parameter estimate k3,"NHP #5, OC",0.002 min⁻¹
same,2-TC parameter estimate k4,"NHP #5, OC",0.000 min⁻¹
same,2-TC parameter estimate K1,"NHP #5, PFC",0.61 mL min-1 cm-3
same,2-TC parameter estimate VT,"NHP #5, PFC",20.4 mL cm-3
same,2-TC parameter estimate k2,"NHP #5, PFC",0.05 min⁻¹
same,2-TC parameter estimate k3,"NHP #5, PFC",0.004 min⁻¹
same,2-TC parameter estimate k4,"NHP #5, PFC",0.006 min⁻¹
same,2-TC parameter estimate K1,"NHP #5, PUT",0.86 mL min-1 cm-3
same,2-TC parameter estimate VT,"NHP #5, PUT",21.1 mL cm-3
same,2-TC parameter estimate k2,"NHP #5, PUT",0.06 min⁻¹
same,2-TC parameter estimate k3,"NHP #5, PUT",0.007 min⁻¹
same,2-TC parameter estimate k4,"NHP #5, PUT",0.012 min⁻¹
same,2-TC parameter estimate K1,"NHP #5, THA",0.64 mL min-1 cm-3
same,2-TC parameter estimate VT,"NHP #5, THA",27.7 mL cm-3
same,2-TC parameter estimate k2,"NHP #5, THA",0.04 min⁻¹
same,2-TC parameter estimate k3,"NHP #5, THA",0.004 min⁻¹
same,2-TC parameter estimate k4,"NHP #5, THA",0.005 min⁻¹
same,2-TC parameter estimate K1,"NHP #5, WB",0.50 mL min-1 cm-3
same,2-TC parameter estimate VT,"NHP #5, WB",17.3 mL cm-3
same,2-TC parameter estimate k2,"NHP #5, WB",0.05 min⁻¹
same,2-TC parameter estimate k3,"NHP #5, WB",0.005 min⁻¹
same,2-TC parameter estimate k4,"NHP #5, WB",0.008 min⁻¹
same,pattern of regional radioactivity (binding),baseline PET images and time curves,"high binding in the striatum and thalamus, whereas the binding was lower in the cortex and cerebellum"
same,"VT, 2-TC mean","caudate nucleus, n = 4",22.0 mL cm^–3
same,"VT, Logan mean","caudate nucleus, n = 4",18.9 mL cm^–3
same,"VT, 2-TC mean","cerebellum, n = 3",13.6^** mL cm^–3
same,"VT, Logan mean","cerebellum, n = 4",12.6 mL cm^–3
same,"VT, 2-TC mean","occipital cortex, n = 2",11.0^* mL cm^–3
same,"VT, Logan mean","occipital cortex, n = 4",11.0 mL cm^–3
same,"VT, 2-TC mean","prefrontal cortex, n = 4",14.7 mL cm^–3
same,"VT, Logan mean","prefrontal cortex, n = 4",13.1 mL cm^–3
same,"VT, 2-TC mean","putamen, n = 4",17.3 mL cm^–3
same,"VT, Logan mean","putamen, n = 4",16.5 mL cm^–3
same,"VT, 2-TC mean","thalamus, n = 4",19.8 mL cm^–3
same,"VT, Logan mean","thalamus, n = 4",17.3 mL cm^–3
same,"VT, 2-TC mean","whole brain, n = 4",13.5 mL cm^–3
same,"VT, Logan mean","whole brain, n = 4",12.4 mL cm^–3
